Measurements published in patent publication US20240103006A1 (Roche Diagnostics Operations, Inc., priority 2021, published 2024).

Experiments:
[1] = solvent as listed per probe; cited from earlier work
[2] = UV-vis spectral properties / extinction coefficients in aqueous buffer; type: physicochemical; conditions: merocyanine dyes
Protocol: Absorption spectra were recorded on a Cary 50 UV-vis spectrometer from Varian. All measurements were performed in 1 cm UV-vis disposable cuvettes (BRAND semi-micro) and air-equilibrated solutions at 25±0.1° C. A total assay volume of 1.0 mL was used for each measurement. UV-vis scan spectra were recorded using following parameters: average time 0.05 s; data interval 1 nm; scan rate 1200 nm/min; with base line correction.
Stock solutions of assayed compounds (2-5 mM) were prepared in H2O-DMSO (1:1), stored at −20° C., and diluted to 1.0 mM with buffer before use. The L-Cys stock solution (20.0 mM) was freshly prepared in buffer before the measurements. […]
For a measurement, 1000 μL of buffer and 1-50 μL of probe (1.0 mM) were mixed, and then transferred to a cuvette. Absorbance spectra (250-800 nm) were measured against a blank of the buffer. At least six concentrations of each compound were used to calculate extinction coefficients from the slope of probe concentration vs absorbance plots, using MS Excel software (Microsoft).

Structure (SMILES) | Spectra: Probe [1] | Spectra: With Cys [1] | other results
C=CC(=O)OC1=C(/C=C/C2=[N+](CCC)c3ccccc3C2(C)C)CCC/C1=C\C=C1\N(CCC)c2ccccc2C1(C)C | 775 nm | 515 nm | –
C=CC(=O)Oc1ccc2c(c1)Oc1cc(OC(=O)C=C)ccc1C21OC(=O)c2ccccc21 | – | With Cys 490 nm | –
C=CC(=O)Oc1ccc(/C=C/c2sc3ccccc3[n+]2CC)c2cccnc12 | 387 nm | 566 nm | –
C=CC(=O)Oc1ccc2c(c1)OC1CCCC(=O)C1=C2 (centres unmarked) | – | 398 nm | –
C=CC(=O)Oc1ccc2c(c1)OC1=C(/C=C/C3=[N+](C)c4ccccc4C3(C)C)CCCC1=C2 | 582 nm | 674 nm | –
C=CC(=O)Oc1ccc(/C=C/c2cc[n+](C)cc2)cc1 | 335 nm | 372 nm | –
C=CC(=O)Oc1ccc(/C=C/C2=CC(=C(C#N)C#N)c3ccccc3O2)cc1 | 381 nm | 557 nm | –
C=CC(=O)Oc1ccc2c(c1)oc(=O)c1c(=O)oc3ccccc3c12 | 350 nm | 445 nm | –
C=CC(=O)Oc1ccc2cc(/C=C/C3=[N+](C)c4c(ccc5ccccc45)C3(C)C)ccc2c1 | – | With Cys 460 nm | –
C=CC(=O)Oc1ccc2c(c1)Oc1c(ccc3oc(=O)c(C(=O)OCC)cc13)C21OC(=O)c2ccccc21 (centres unmarked) | 332 nm | 450 nm | –
C=CC(=O)Oc1ccc2cc(/C=C/C3=[N+](C)c4ccccc4C3(C)C)ccc2c1 | 409 nm | 448 nm | –
C=CC(=O)Oc1ccc(/C=C/C(=O)/C=C(O)/C=C/c2ccc(OC(=O)C=C)c(OC)c2)cc1OC | 400 nm | 427 nm | –
C=CC(=O)Oc1cccc2c1C(=O)N(Cc1cccc[n+]1CC)C2=O | 360 nm | 400 nm | –
C=CC(=O)Oc1ccc2c(c1)OC1=C(/C=C/C3CC(=C(C#N)C#N)c4ccccc4O3)CCCC1=C2 (centres unmarked) | 550 nm | 600 nm | –
CC1(C)C(/C=C/c2ccc(O)cc2)=[N+](CCCCS(=O)(=O)[O-])c2ccccc21 [LZ04, reference compound] | – | – | ε at λmax ([2]; 25 mM HEPES pH 7.4, 1-24 μM): 36.6 mM⁻¹ cm⁻¹; λmax ([2]; 25 mM HEPES pH 7.4, 1-24 μM): 527 nm; ε at λmax ([2]; same buffer at pH 8.0): 45.6 mM⁻¹ cm⁻¹; λmax ([2]; same buffer at pH 8.0): 527 nm
C[N+]1=C(/C=C/c2ccc(O)cc2)C(C)(C)c2ccccc21.[I-] [LZ06, reference compound] | – | – | ε at λmax ([2]; 25 mM HEPES pH 7.4, 1-24 μM): 27 to 37 mM⁻¹ cm⁻¹; λmax ([2]; 25 mM HEPES pH 7.4, 1-24 μM): 520 nm; ε at λmax ([2]; same buffer at pH 8.0): 37 to 53 mM⁻¹ cm⁻¹; λmax ([2]; same buffer at pH 8.0): 520 nm
Cc1cc(/C=C/C2=[N+](CCCCS(=O)(=O)[O-])c3ccccc3C2(C)C)cc(C)c1O [MF51] | – | – | ε at λmax ([2]; 25 mM HEPES pH 7.4, 1-24 μM): 73.9 mM⁻¹ cm⁻¹; λmax ([2]; 25 mM HEPES pH 7.4, 1-24 μM): 550 nm
